The source made the active and inactive calls.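 Rule for the calls: active = compounds giving half or more protection of infected cells from virus-caused growth loss, again on retest; inactive = the rest.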
System: CEM cells HIV-1 protection, formazan growth assay
Assay: NCI AIDS Antiviral Assay
Conditions: for IC50: measured here: growth of uninfected CEM cells
Procedure, shortened: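 Five concentrations of each compound were applied to infected and uninfected human CEM cells. Protection from HIV-1 was judged from growth measured with a soluble formazan assay.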

Compound	EC50	IC50	outcome
Cc1cc(=O)oc2cc(O)c(O)cc12	> 200 µM	27.5 µM	–
CCN(CC)Cc1nc(C2CCC([N+](=O)[O-])O2)no1 (stereo unspecified)	> 200 µM	72.4 µM	–
COC(=O)c1ccccc1C1CN=NC12Cc1c(C)cc(C)cc1C2=O (stereo unspecified)	> 174 µM	28.2 µM	–
O=C1NC(=O)C(F)(n2cc(F)c(=O)[nH]c2=O)C(O)N1 (stereo unspecified)	> 200 µM	55 µM	–
CCOP(C)(=O)C(N)Cc1ccc(OC)c(OC)c1 (stereo unspecified)	> 200 µM	> 200 µM	–
C[C@@H](c1ccccc1)N1CO[C@@]2(C#Cc3ccc4c(c3)OCO4)CCC[C@@H]12	> 200 µM	33.1 µM	–
COc1cccc2c(Nc3ccc(S(=O)(=O)N=C(N)N)cc3)c3ccc([N+](=O)[O-])cc3nc12	> 200 µM	11 µM	–
Cc1cc(S(=O)(=O)Nc2n[nH]c(Nc3ccccc3)n2)c(S)cc1Cl	170 µM	275 µM	–
O=C(CNc1nccs1)Nn1cnc2ccc(S(=O)(=O)Nc3nccs3)cc2c1=O	> 200 µM	> 200 µM	–
NC(CCC(=O)O)(CCC(=O)O)CCC(=O)O	–	–	inactive
C=C1[C@H]2C[C@H]3[C@@H]4N5C[C@]6(C)CCCC47C6[C@H]5CC3([C@@H]1O)[C@H]7[C@H]2O	–	–	inactive
O=C(CCCc1cccc2[nH]c3c(c12)CN(Cc1ccccc1)CC3)c1ccc(F)cc1	> 200 µM	14.5 µM	–
CCc1cccc(C(C)C)c1NC(=O)C(=O)C(CC(=O)Nc1ccc(Cl)c(Cl)c1)C(=O)OC (stereo unspecified)	> 10.7 µM	> 10.7 µM	–
CN(C)CCN1CCc2c([nH]c3ccccc23)C1c1cccnc1 (stereo unspecified)	> 6.31 µM	> 6.31 µM	–
COc1ccc(C2C(C#N)=C(S)N(C3OC(CO)C(O)C(O)C3O)C(c3ccccc3)=C2C(C)=O)cc1 (stereo unspecified)	> 200 µM	89.1 µM	–
[O-]c1c(-c2ccccc2)[se]c(-c2ccccc2)[n+]1-c1ccccc1	–	–	inactive
COC1(OC)CCN(Cc2ccccc2)C1=O	> 20 µM	2.69 µM	–
CCCCCC(=O)Nc1n[nH]nc1C(N)=O	> 200 µM	> 200 µM	–

Compound	EC50	IC50	outcome
NS(=O)(=O)c1cc2c(cc1Cl)NC(C(=O)c1cc(=O)c3ccc(O)cc3o1)=NS2(=O)=O	> 513 µM	> 513 µM	–
CN(C)CC/C(=N\Nc1ccc(Cl)cc1Cl)c1ccccc1	–	–	inactive
Cc1ccc2oc(=O)cc(CC(=O)O)c2c1	> 1150 µM	> 1150 µM	–
O=[N+]([O-])c1ccc2nsnc2c1	> 105 µM	47.9 µM	–
COC(=O)C(Cc1nc2ccc(Cl)cc2[nH]c1=O)C(=O)C(=O)Nc1ccccc1[N+](=O)[O-] (stereo unspecified)	> 148 µM	> 148 µM	–
O=S(c1ccccc1)c1ccccc1	> 447 µM	389 µM	–
Cc1ccc(-c2c(C#N)c(-c3ccc(C)cc3)n(NS(=O)(=O)c3ccccc3)c(=O)c2C#N)cc1	> 200 µM	22.9 µM	–
CCNc1cnc2c(n1)c(=O)n(C)c(=O)n2C	> 200 µM	> 200 µM	–
NC(N)=NN=C1CCCCC1	> 200 µM	> 200 µM	–
CC12CCC3C(CCC4=CC(OC5OC(CO)C(O)C(O)C5O)CCC43C=O)C1(O)CCC2c1ccc(=O)oc1 (stereo unspecified)	> 0.02 µM	0.00316 µM	–
O=C(O)CC[C@H](NC(=O)c1ccc(-n2nc3ccc(O)cc3nc2=O)cc1)C(=O)O	> 145 µM	> 145 µM	–
CC(=C\c1ccccc1)/C=C1/NC(=O)NC1=O	> 200 µM	129 µM	–
O=C1Cc2ccccc2CCc2ccccc21	135 µM	> 200 µM	–
COC(=O)C(=O)C(C(=O)C(=O)Nc1cc([N+](=O)[O-])ccc1[N+](=O)[O-])c1nc2ccc(C(=O)c3ccccc3)cc2[nH]c1=O (stereo unspecified)	> 158 µM	83.2 µM	–
Cc1ccc(S(=O)(=O)OCC23CCC(CC2)C2CC23)cc1 (stereo unspecified)	> 100 µM	70.8 µM	–
[N-]=[N+]=Nc1ncnc2c1sc(=S)n2-c1ccccc1	> 91.2 µM	> 91.2 µM	–
OC(COc1ccc2ccccc2c1)COc1ccc2ccccc2c1	> 200 µM	138 µM	–
